The text below walks through data of patent US20050090498A1, “3-Quinolin-2(1h)-ylideneindolin-2-one derivative” (priority 2001, published 2005).

One may read the IC50 as the midpoint of a concentration-inhibition curve.

Assay [1] relates to Human umbilical vein endothelial cells (HUVEC), VEGF-stimulated. Put plainly: Test on the inhibition of VEGF-stimulated HUVEC growth ([3H]thymidine incorporation). Format: cell-based. The note with it: human recombinant VEGF 10 ng/ml. Here is the method:
Test method: (Cell culture) Human umbilical vein endothelial cells (HUVEC) were cultured using EGM-2 complete medium (Clonetics) which had been supplemented with additives (2% FBS, 0.4% FGF (fibroblast growth factor), 0.1% VEGF, 0.1% IGF-I (insulin like growth factor-I), 0.1% EGF (epidermal growth factor), 0.1% ascorbic acid, 0.1% GA-1000, 0.1% heparin and 0.04% hydrocortisone).
(Evaluation of compounds) HUVEC (10,000 cells/well) were inoculated into EGM-2 complete medium in a gelatin-coated 96 well plate (mfd. by IWAKI) and cultured overnight. After washing with a physiological phosphate buffer, the medium was exchanged with a low serum medium (Medium 199/0.1% FBS) and the culturing was continued for 24 hours. Each of the compounds to be evaluated was prepared as a 10 mM DMSO solution and diluted with the low serum medium. This was added to each well to a final concentration of from 0.001 to 10 μM. After 2 hours of the compound treatment, human recombinant VEGF (R & D Systems) was added to a final concentration of 10 ng/ml. After 18 hours, [^3H]thymidine (Amersham Pharmacia) was added in 5 μCi/well portions. After 4 hours, the reaction was terminated by adding 0.2% SDS in 50 μl/well portions, and the product was recovered on GF/C Unifilter (Packard). After adding 25 μl of Microscinti 20 (Packard), the radioactivity incorporated into the DNA trapped on the filter was measured using TopCount (Packard). The IC50 of the inhibitory activity of each compound was calculated as the 50% inhibition concentration (IC50 value) of each compound to be tested, by defining the incorporated amount of [^3H]thymidine at the time of VEGF addition as 100%, and its incorporated amount at the time of no addition of VEGF as 0%.
On the technique in general: Uptake of a labelled nucleoside into DNA is a usual measure of proliferation.

Assay [2] has as its system human colon tumor COLO 205. Put plainly: In vivo anti-tumor test using human colon tumor bearing nude mice. Also on record: species or system female Balb/c nude mouse. Conditions: COLO 205 bearing nude mice, oral once a day for 14 days, 10 or 30 mg/kg/day. Here is the method: Test method: A total of 4×10^6 cells of a human colon tumor COLO 205 were administered under the dorsal side skin of each female Balb/c nude mouse. When the tumor volume reached 50 to 100 mm^3, each of the test compounds was orally administered once a day for 14 days. In addition, 0.5% methyl cellulose aqueous solution was orally administered to the control group. Calipers were used for the measurement of tumor diameter, and it was measured on the next day of the final administration. In this case, the tumor volume was calculated using the following calculation formula. Tumor volume=(width^2×length)/2

For assay [3], the system named is Human umbilical vein endothelial cells (HUVEC), VEGF-stimulated. Put plainly: Test on the inhibition of VEGF-stimulated HUVEC growth ([3H]thymidine incorporation). The format is cell-based. Conditions: human recombinant VEGF 10 ng/ml. This is another data set of the same source.
Assay [4] relates to VEGF-dependent in vitro angiogenesis (endotherial vessel forming amount). Put plainly: In vitro angiogenesis inhibition test (KURABO angiogenesis kit, CD31 staining). The format is cell-based. Conditions: Homo sapiens, 312 h; 10 ng/ml VEGF, 13 days culture, anti-VEGF antibody as 0% control. On the procedure: Test method: An angiogenesis assay kit (mfd. by KURABO was used. A medium prepared by adding 10 ng/ml of VGEF (R & D Systems) to the special medium attached to the kit used as the culture medium. Each test drug was prepared as a 10 mM DMSO solution and added to a final concentration of from 0.003 to 1 μM by diluting with the special medium. Amount of angiogenesis under a condition of not adding the test drug was used as the positive control, and a condition under which 25 μg/ml of an anti-VEGF antibody (Sigma) was added was used as the negative control. On the 4th, 7th and 10th days after commencement of the culturing, the test drug was prepared as described in the above and exchanged with the medium of each well. On the 13th day, fixation of the cell layer was carried out in accordance with the method attached to the kit. That is, fixation of cell layer was carried out by adding ice-cooled 70% ethanol after washing with a physiological phosphate buffer and then allowing to stand at room temperature for 30 minutes. […]
A endotherial vessel staining kit CD31 for staining (mfd. by KURABO) was used for the staining of the thus formed hollow organ. […] By importing the file preserved in the imaging software, the number of pixel obtained by threshold and measure commands was recorded. […]

For the molecule `O=C1Nc2ccccc2C1=C1C=Cc2cc(CN3CCOCC3)ccc2N1` [Example 54], the IC50 in assay [1] worked out at 29 nM. For the same molecule, the “tumor growth inhibition (tumor volume) versus control” value in assay [2] was “inhibit the tumor growth with a significance for the control”. On to `O=C1Nc2ccccc2C1=C1C=Cc2cc(CNC3CCOCC3)ccc2N1` [Example 115], for which, in assay [2], the “tumor growth inhibition (tumor volume) versus control” value is “inhibit the tumor growth with a significance for the control”. For the molecule `O=C1Nc2cc(F)ccc2C1=C1C=Cc2cc(OCCN3CCOCC3)ccc2N1` [Example 310], the IC50 in assay [1] is 310 nM. Besides, the “tumor growth inhibition (tumor volume) versus control” value in assay [2] was “inhibit the tumor growth with a significance for the control”. Turning to `O=C1Nc2ccc(F)cc2C1=C1C=Cc2cc(OCCN3CCOCC3)ccc2N1` [Example 311], the IC50 in assay [1] is 240 nM. The “tumor growth inhibition (tumor volume) versus control” value in assay [2] is on record as “inhibit the tumor growth with a significance for the control”. `O=C1Nc2cc(C(=O)O)ccc2C1=C1C=Cc2ccccc2N1` [Example 25, 2-oxo-3-quinolin-2(1H)-ylideneindoline-6-carboxylic acid]: the IC50 in assay [3] was determined as 380 nM. With `O=C1Nc2ccccc2C1=C1C=Cc2cc(OCC(=O)N3CCOCC3)ccc2N1` [Example 8, 3-[6-(2-morpholin-4-yl-2-oxoethoxy)quinolin-2(1H)-ylidene]indolin-2-one], the IC50 in assay [3] was found to be 170 nM.

With `CCN(CC)CCOc1ccc2c(c1)C=CC(=C1C(=O)Nc3ccccc31)N2.O=C(O)CCC(=O)O` [Example 44], the IC50 in assay [1] amounted to 280 nM. The “tumor growth inhibition (tumor volume) versus control” value in assay [2] was “inhibit the tumor growth with a significance for the control”. `CN1CCC(COc2ccc3c(c2)C=CC(=C2C(=O)Nc4ccccc42)N3)CC1` [Example 15, 3-{6-[(1-methylpiperidin-4-yl)methoxy]quinolin-2(1H)-ylidene}indolin-2-one]: the concentration for half-maximal inhibition (IC50) in assay [3] was found to be 320 nM. Same read-out and setting: then `O=C1Nc2ccccc2C1=C1C=Cc2cc(OCCn3ccnn3)ccc2N1` [Example 1, 3-{6-[2-(1H-1,2,3-triazol-1-yl)ethoxy]quinolin-2(1H)-ylidene}indolin-2-one], with 210 nM. For `O=C(CN1CCOCC1)Nc1ccc2c(c1)C=CC(=C1C(=O)Nc3ccccc31)N2` [Example 9, 2-morpholin-4-yl-N-[2-(2-oxoindolin-3-ylidene)-1,2-dihydroquinolin-6-yl]acetamide], the half-inhibitory concentration (IC50) in assay [3] came to 200 nM.

Consider `Nc1ccc2c(c1)C=CC(=C1C(=O)Nc3ccccc31)N2` [Example 10, 3-[6-aminoquinolin-2(1H)-ylidene]indolin-2-one], for which, in assay [3], the IC50 turned out to be 990 nM. Take `CN1CCN(C(=O)c2ccc3c(c2)C=CC(=C2C(=O)Nc4ccccc42)N3)CC1` [Example 148, 3-[6-(4-methylpiperazine-1-carbonyl)quinolin-2(1H)-ylidene]indolin-2-one]: the IC50 in assay [3] was 74 nM. Further, the “tumor growth inhibition (tumor volume) versus control” value in assay [2] was “inhibit the tumor growth with a significance for the control”. For `Cl.O=C1Nc2ccccc2C1=C1C=Cc2cc(CNCC3CCOCC3)ccc2N1` [Example 113], the “tumor growth inhibition (tumor volume) versus control” value in assay [2] was “inhibit the tumor growth with a significance for the control”. As to `O=C1Nc2ccccc2C1=C1C=Cc2cc(CO)ccc2N1` [Example 14, 3-(6-hydroxymethylquinolin-2(1H)-ylidene)indolin-2-one], in assay [3], the IC50 turned out to be 300 nM. In the case of `O=C1Nc2ccccc2C1=C1C=Cc2cc(CNCC3CCCO3)ccc2N1` (stereo not drawn) [Example 111], in assay [1], the half-inhibitory concentration (IC50) stood at 300 nM. In assay [2], the “tumor growth inhibition (tumor volume) versus control” value was “inhibit the tumor growth with a significance for the control”.

For the molecule `CCN1CCN(Cc2ccc3c(c2)C=CC(=C2C(=O)Nc4ccccc42)N3)CC1` [Example 134, 3-{6-[(4-ethylpiperazin-1-yl)methyl]quinolin-2(1H)-ylidene}indolin-2-one], the “tumor growth inhibition (tumor volume) versus control” value in assay [2] is given as “inhibit the tumor growth with a significance for the control”.

As to `CN1CCN(CCOc2ccc3c(c2)C=CC(=C2C(=O)Nc4ccccc42)N3)CC1` [Example 41], the IC50 in assay [1] came out at 120 nM. The “tumor growth inhibition (tumor volume) versus control” value in assay [2] is recorded as “inhibit the tumor growth with a significance for the control”.

Regarding `CCN(CC)CCCc1ccc2c(c1)C=CC(=C1C(=O)Nc3ccccc31)N2` [Example 99], in assay [1], the IC50 worked out at 130 nM. Besides, the “tumor growth inhibition (tumor volume) versus control” value in assay [2] is on record as “inhibit the tumor growth with a significance for the control”. For the molecule `CN(C)[C@H]1CCCC1Nc1ncc2c(n1)/C(=C1\C=Cc3ccccc3N1)C(=O)N2` (stereo partly drawn) [Example 354], in assay [3], the IC50 stood at 140 nM. On the same count and under the same terms, then `O=C(Nc1cccnc1)Nc1ccc2c(c1)C=CC(=C1C(=O)Nc3ccccc31)N2` [Example 16, 1-[2-(2-oxoindolin-3-ylidene)-1,2-dihydroquinolin-6-yl]-3-(pyridin-3-yl)urea], with 110 nM. For the molecule `CN1CCN(Cc2ccc3c(c2)C=CC(=C2C(=O)Nc4ccccc42)N3)CC1` [Example 132, 3-{6-[(4-methylpiperazin-1-yl)methyl]quinolin-2(1H)-ylidene}indolin-2-one], the “tumor growth inhibition (tumor volume) versus control” value in assay [2] is recorded as “inhibit the tumor growth with a significance for the control”. Consider `O=C1Nc2ccccc2C1=C1C=Cc2cc(OCCN3CCOCC3)ccc2N1` [Example 4, 3-[6-(2-morpholin-4-ylethoxy)quinolin-2(1H)-ylidene]indolin-2-one], for which the concentration for half-maximal inhibition (IC50) in assay [3] was 190 nM. Further, the “tumor growth inhibition (tumor volume) versus control” value in assay [2] was “inhibit the tumor growth with a significance for the control”. In the case of `CC(=O)c1ccc2c(c1)NC(=O)C2=C1C=Cc2ccccc2N1` [Example 21, 6-acetyl-3-quinolin-2(1H)-ylideneindolin-2-one], in assay [3], the half-maximal inhibitory concentration (IC50) stood at 220 nM. As for `O=C1Nc2ccccc2C1=C1C=Cc2ccccc2N1` [Compound A, 3-quinolin-2(1H)-ylideneindolin-2-one], the IC50 in assay [3] stood at 140 nM; in assay [4], 69 nM. For the molecule `O=C1Nc2cnc(Cl)nc2/C1=C1\C=Cc2ccccc2N1` [Example 361], the IC50 in assay [3] is 24 nM.

Regarding `O=C1Nc2ccc(Br)cc2C1=C1C=Cc2ccccc2N1` [Example 285], the IC50 in assay [1] was 70 nM.
